Experimental data from EP4506003A1, “HALOGEN DERIVATIVES OF (4´,5´- METHYLENEDIOXYPHENYL)-6,7-DIMETHOXY-1,2,3,4-TETRAHYDROISOQUINOLINE FOR USE IN THE TREATMENT OF LEUKEMIA” (S.Yu Yunusov Institute of Chemistry of Plant Substances of …, priority 2023, dated 2025).
Marks after values point to notes of the source that are not given here.

Experiments:
Rat liver hepatocytes = assay: MTT cytotoxicity on hepatocytes; type: cell-based; conditions: 24 hours
Method: (§1) The cytotoxic properties of the compounds were determined in vitro using the MTT method in 96-well plates (Costar, USA). […] Rat liver hepatocytes were obtained according to the method, human blood mononuclear cells - according to [23]. Fibroblast cells were obtained according to the method of [24] with some modifications. Cell cultures were subcultured into 96-well plates according to the method of [21] by adding 100 μl of nutrient medium. The CCRF-CEM suspension culture was poured into a tube, centrifuged at 800 rpm for 10 minutes, and the supernatant was discarded. […] Data obtained in 3 independent experiments were expressed as the mean value for each concentration ± standard error of the mean, relative to the control values (cells without test compounds). The cytotoxic effect of each of the studied compounds was compared with the effect of the cytostatic Cisplatin-Naprod (India), containing cisplatin as an active component. Table 1: IC50 μM value for test compounds

fibroblasts = assay: MTT cytotoxicity on fibroblasts; type: cell-based; conditions: 24 hours
Method: as §1

[1] = test system: CCRF-CEM (CCL-119) (T-lymphoblastic leukemia); assay: MTT cytotoxicity on CCRF-CEM cells; type: cell-based; conditions: 24 hours
Method: as §1

[2] = test system: blood of patients with leukemia (combined group); assay: Hemogram of blood of patients with leukemia (combined group) after exposure; type: cell-based; conditions: 10 µg/ml, 3 hours, 37.0°C
Excerpt: (§3) The effect of compounds F1 and F2 was studied on biological material (blood) of patients with hematological malignancies (leukemia), as well as for individual nosologies, in particular, patients with leukemia (combined group) (n=224), T-ALL (n=84), B-ALL (n=100), ALL (n=100), AML (n= 98), AML (n=94) and AML (n= 98) were studied. A total of 798 blood samples from patients with leukemia were examined.
(§4) The drugs Cytosar (Alexan) (Ebewe Pharma, Austria) and doxorubicin (Naprod, Mumbai, India) recommended by WHO for the treatment of the above oncohematological diseases were used as comparison drugs.
(§5) 5 ml of venous blood from sick and conditionally healthy individuals were collected into Vacutainer tubes with the addition of EDTA (Himedia, India).
(§6) The resulting blood was divided into aliquots of 1 ml and 10 µl (10 µg/ml) of the studied drugs (cytosar, doxorubicin, F1 and F2) were added to each tube.

[3] = test system: blood of patients with T-ALL; assay: Hemogram of blood of patients with T-ALL after exposure; type: cell-based; conditions: 10 µg/ml, 3 hours, 37.0°C
Excerpt: as §3, §4, §5, §6

[4] = test system: blood of patients with AML; assay: Hemogram of blood of patients with AML after exposure (Example 13, Table 10; also OMML); type: cell-based; conditions: AML (Table 10); 10 µg/ml; 3 hours, 37.0°C
Method: as §4, §5, §6

[5] = test system: blood of patients with AML; assay: Hemogram of blood of patients with AML after exposure (Example 12, Table 9); type: cell-based; conditions: AML (Table 9); 10 µg/ml; 3 hours, 37.0°C
Method: as §4, §5, §6

[6] = test system: blood of patients with B-ALL; assay: Hemogram of blood of patients with B-ALL after exposure; type: cell-based; conditions: 10 µg/ml, 3 hours, 37.0°C
Method: A total of 798 blood samples from patients with leukemia were examined.
as §4, §5, §6

[7] = test system: blood of patients with ALL; assay: Hemogram of blood of patients with ALL after exposure; type: cell-based; conditions: 10 µg/ml, 3 hours, 37.0°C
Method: as §3, §5, §6

[8] = test system: blood of patients with AML; assay: Hemogram of blood of patients with AML after exposure (Example 14, Table 11); type: cell-based; conditions: AML (Table 11); 10 µg/ml; 3 hours, 37.0°C
Excerpt: as §3, §4, §5, §6

[9] = test system: blood of conditionally healthy individuals; assay: Hemogram of blood of conditionally healthy individuals after exposure to the drugs; conditions: 10 µg/ml, 3 hours, 37.0°C
Method: as §5, §6

[10] = Acute toxicity study (LD50); conditions: both, outbred white, mouse, in vivo, ip
Method: (§2) We studied the acute toxicity of compound F1 in vivo. The experiments were carried out on outbred white mice of both sexes weighing 18-20 g (24 pcs.). The animals were divided into groups of 12 mice each. The compound was dissolved in DMSO and then adjusted to the desired concentration with 0.9% NaCl solution and administered intraperitoneally and subcutaneously in a dose range from 5.0 to 200.0 mg/kg. […] The maximum relative error of the applied dose was no more than 5%.
as §2, with “F2” for “F1”, “brought” for “adjusted”, “subcutaneously to animals” for “subcutaneously”, “administered” for “applied”

Compound N.N.[Cl][Pt][Cl] [Cisplatin, cisplatin, reference compound] has an IC50 (Rat liver hepatocytes) of 28.7 µM, an IC50 (fibroblasts) of 29.4 µM and an IC50 [1] of 12.4 µM.
In the case of Nc1ccn([C@@H]2O[C@H](CO)[C@@H](O)[C@@H]2O)c(=O)n1 [Cytosar, cytarabine, reference compound], the “Band (s/n) neutrophils” value [2] is reported as 1,1±0,4 %, the Blasts [2] is reported as 65,9±2,8 % and the Destroyed cells [2] is reported as 9,0±1,6 %. For the same compound, the Eosinophils [2] was 0,4±0,3%, the Lymphocytes [2] was 13,7±1,6% and the Monocytes [2] was 3,5±0,6 %. The Myelocytes [2] was 1,1±0,3 %, the Promyelocytes [2] was 0,2±0,1% and the “Segmented (s/i) neutrophils” value [2] was 6,7±1,1%. The “Band (s/n) neutrophils” value [3] was 1,0±0,1%, the Blasts [3] was 73,5±2,0 % and the Destroyed cells [3] was 8,8±1,0 %. The Eosinophils [3] was 0,0±0,0%, the Lymphocytes [3] was 11,5±1,0 % and the Monocytes [3] was 2,3±0,4%. The Myelocytes [3] was 0,0±0,0%, the Promyelocytes [3] was 0,0±0,000% and the “Segmented (s/i) neutrophils” value [3] was 3,0±0,4 %. The “Band (s/n) neutrophils” value [4] was 3,6±0,5%, the Blasts [4] was 50,2±2,8% and the Destroyed cells [4] was 7,8±0,6 %. The Eosinophils [4] was 0,6±0,3%, the Lymphocytes [4] was 6,6±0,7% and the Monocytes [4] was 1,2±0,2 %. The Myelocytes [4] was 16,0±1,4 %, the Promyelocytes [4] was 0,0±0,0% and the “Segmented (s/i) neutrophils” value [4] was 14,1±1,2 %. The “Band (s/n) neutrophils” value [5] was 1,2±0,5%, the Blasts [5] was 65,4±3,9 % and the Destroyed cells [5] was 6,3±1,7 %. The Eosinophils [5] was 1,0±0,9%, the Lymphocytes [5] was 12,5±1,7% and the Monocytes [5] was 3,4±0,8%. For the same compound, the Myelocytes [5] was 1,4±0,6%, the Promyelocytes [5] was 0,9±0,6% and the “Segmented (s/i) neutrophils” value [5] was 5,6±1,2%. For the same compound, the “Band (s/n) neutrophils” value [6] was 0,6±0,3%, the Blasts [6] was 63,5±3,4 % and the Destroyed cells [6] was 8,9±2,2 %. For the same compound, the Eosinophils [6] was 0,1±0,1%, the Lymphocytes [6] was 17,2±2,0% and the Monocytes [6] was 4,6±1,2%. The Myelocytes [6] was 0,7±0,4%, the Promyelocytes [6] was 0,0±0,0% and the “Segmented (s/i) neutrophils” value [6] was 6,1±0,9%. The “Band (s/n) neutrophils” value [7] was 0,4±0,2%, the Blasts [7] was 78,7±1,4 % and the Destroyed cells [7] was 4,8±1,4 %. The Eosinophils [7] was 0,0±0,0%, the Lymphocytes [7] was 11,4±0,8% and the Monocytes [7] was 2,2±0,4%. The Myelocytes [7] was 0,2±0,1%, the Promyelocytes [7] was 0,0±0,0% and the “Segmented (s/i) neutrophils” value [7] was 2,4±0,6%. For the same compound, the “Band (s/n) neutrophils” value [8] was 3,5±1,0 %, the Blasts [8] was 59,5±3,7 % and the Destroyed cells [8] was 12,4±1,7 %. For the same compound, the Eosinophils [8] was 4,0±0,2%, the Lymphocytes [8] was 8,4 ±0,9% and the Monocytes [8] was 4,9±1,2 %. For the same compound, the Myelocytes [8] was 1,8±0,4%, the Promyelocytes [8] was 0,0±0,0% and the “Segmented (s/i) neutrophils” value [8] was 9,2±2,3%. The “Band (s/n) neutrophils” value [9] was 1,8±0,2 %, the Blasts [9] was 0,0±0,0% and the Destroyed cells [9] was 0,0±0,0%. The Eosinophils [9] was 2,1±0,4%, the Lymphocytes [9] was 28,0±1,2% and the Monocytes [9] was 6,6±0,4 %. For the same compound, the Myelocytes [9] was 0,0±0,0%, the Promyelocytes [9] was 0,0±0,0% and the “Segmented (s/i) neutrophils” value [9] was 61,5±1,2%.
For COc1cccc2c1C(=O)c1c(O)c3c(c(O)c1C2=O)C[C@@](O)(C(=O)CO)C[C@@H]3O[C@H]1C[C@H](N)[C@H](O)[C@H](C)O1 [Doxorubicin, doxorubicin, reference compound], the “Band (s/n) neutrophils” value [2] was 1,8±0,5%, the Blasts [2] was 65,6±2,6 % and the Destroyed cells [2] was 11,4±2,2 %. The Eosinophils [2] was 3,8±2,4%, the Lymphocytes [2] was 15,0±1,8% and the Monocytes [2] was 5,3±1,2%. The Myelocytes [2] was 3,3±1,2%, the Promyelocytes [2] was 0,0±0,000% and the “Segmented (s/i) neutrophils” value [2] was 5,8±0,7%. The “Band (s/n) neutrophils” value [3] was 1,2±0,1 %, the Blasts [3] was 67,2±0,9 % and the Destroyed cells [3] was 13,4±0,5 %. For the same compound, the Eosinophils [3] was 0,0±0,0%, the Lymphocytes [3] was 9,8±0,1 % and the Monocytes [3] was 1.7±0,2%. The Myelocytes [3] was 0,0±0,0%, the Promyelocytes [3] was 0,0±0,0% and the “Segmented (s/i) neutrophils” value [3] was 6,7±0,4%. The “Band (s/n) neutrophils” value [4] was 3,4±0,5%, the Blasts [4] was 58,4±1,9% and the Destroyed cells [4] was 15,1±1,1 %. The Eosinophils [4] was 0,7±0,3%, the Lymphocytes [4] was 6,1±0,7% and the Monocytes [4] was 1.6±0,3 %. For the same compound, the Myelocytes [4] was 4,0±0,4 %, the Promyelocytes [4] was 0,0±0,0% and the “Segmented (s/i) neutrophils” value [4] was 10,8±1,0%. The “Band (s/n) neutrophils” value [5] was 0,5±0,4%, the Blasts [5] was 68,4±3,6 % and the Destroyed cells [5] was 5,6±1,4 %. The Eosinophils [5] was 0,8±0,7%, the Lymphocytes [5] was 13,2±2,4% and the Monocytes [5] was 5.2±1,5%. The Myelocytes [5] was 0,9±0,8%, the Promyelocytes [5] was 0,0±0,0% and the “Segmented (s/i) neutrophils” value [5] was 5,5±1,2%. For the same compound, the “Band (s/n) neutrophils” value [6] was 0,7±0,2%, the Blasts [6] was 64,3±3,7% and the Destroyed cells [6] was 13,0±2,8 %. The Eosinophils [6] was 0,1±0,1%, the Lymphocytes [6] was 15,0±2,9% and the Monocytes [6] was 1.6±0,5%. For the same compound, the Myelocytes [6] was 0,6±0,3%, the Promyelocytes [6] was 0,0±0,0% and the “Segmented (s/i) neutrophils” value [6] was 4,9±0,9%. For the same compound, the “Band (s/n) neutrophils” value [7] was 0,3±0,1%, the Blasts [7] was 76,4±1,7 % and the Destroyed cells [7] was 9,0±1,1*^ %. For the same compound, the Eosinophils [7] was 0,2±0,1%, the Lymphocytes [7] was 9,9±1,3% and the Monocytes [7] was 1.9±0,6%. The Myelocytes [7] was 0,2±0,1%, the Promyelocytes [7] was 0,0±0,0% and the “Segmented (s/i) neutrophils” value [7] was 2,2±0,3%. For the same compound, the “Band (s/n) neutrophils” value [8] was 0,8±0,2%, the Blasts [8] was 45,4±1,9 % and the Destroyed cells [8] was 24,0±4,0 %. The Eosinophils [8] was 0,0±0,0%, the Lymphocytes [8] was 9,7±1,5% and the Monocytes [8] was 11.2±2,3 %. The Myelocytes [8] was 0,0±0,0%, the Promyelocytes [8] was 0,0±0,0% and the “Segmented (s/i) neutrophils” value [8] was 9,1±1,5%. For the same compound, the “Band (s/n) neutrophils” value [9] was 1,5±0,2%, the Blasts [9] was 0,0±0,0% and the Destroyed cells [9] was 0,0±0,0%. The Eosinophils [9] was 1,7±0,2%, the Lymphocytes [9] was 28,1±0,9% and the Monocytes [9] was 6,1±0,4%. The Myelocytes [9] was 0,0±0,0%, the Promyelocytes [9] was 0,0±0,0% and the “Segmented (s/i) neutrophils” value [9] was 62,6±1,0%. For the same compound, the LD50 at 1 week [10] was 10.8 mg/kg.
